# In patent US20120015957A1, “PIPERAZINYL DERIVATIVES USEFUL AS MODULATORS OF THE NEUROPEPTIDE Y2 RECEPTOR” (priority 2007, published 2012):
# Target: T1, NPY Y2 receptor (Homo sapiens, UniProt P49146)
# T1 construct: endogenous in cells; host or cells: KAN-Ts cells (membrane preparation)
# T1 sequence (P49146 1-381): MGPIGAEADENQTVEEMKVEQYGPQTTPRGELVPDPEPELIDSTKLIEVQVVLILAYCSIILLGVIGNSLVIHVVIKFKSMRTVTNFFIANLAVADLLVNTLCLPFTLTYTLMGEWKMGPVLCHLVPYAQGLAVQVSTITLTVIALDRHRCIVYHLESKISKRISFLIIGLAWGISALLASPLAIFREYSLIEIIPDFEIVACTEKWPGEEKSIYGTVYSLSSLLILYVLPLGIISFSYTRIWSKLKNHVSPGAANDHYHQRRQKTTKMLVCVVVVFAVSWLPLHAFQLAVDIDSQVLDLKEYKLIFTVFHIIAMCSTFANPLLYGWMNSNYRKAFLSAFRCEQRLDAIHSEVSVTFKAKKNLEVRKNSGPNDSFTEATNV
# Assay: Neuropeptide Y2 radioligand binding assay ([125I]PYY, KAN-Ts cell membranes)
# Settings: membranes of KAN-Ts cells endogenously expressing Y2 receptors; [125I]PYY 80 pM; 1 h at rt; read-out: IC50 (μM), NPY Y2 binding
# Experimental: KAN-Ts endogenously expressing Y2 receptors were used for the radioligand binding assay. Cells were grown to confluence on 150 cm^2 tissue culture plates, washed with phosphate-buffered saline (PBS), and scraped into 50 mL tubes. After centrifugation, the supernatant was aspirated, and the pellets frozen and stored at −80° C. Thawed pellets were homogenized with a polytron tissue grinder for 15 sec in 20 mM Tris-HCl, 5 mM EDTA. The homogenate was centrifuged at 800×g for 5 min and the collected supernatant was recentrifuged at 25000×g for 25 min. The resulting pellet was resuspended in binding buffer (20 mM HEPES, 120 mM NaCl, 0.22 mM KH2PO4, 1.3 mM CaCl2, 0.8 mM MgSO4). Membranes were incubated with [^125I]PYY (80 pM) in the presence or absence of test compound for 1 h at rt. The reaction was stopped by filtration through GF/C filter plates pre-soaked in 0.3% polyethylenimine and subsequently washed with Tris 50 mM, 5 mM EDTA buffer. Plates were dried for 1 h in a 55° C. oven, scintillation fluid was added and the radioactivity was counted in a Packard TopCount. Specific binding to the NPY receptor subtypes was determined by radioactivity that was bound in the presence of […] NPY. Each binding experiment was repeated three to eight times, each in duplicate. IC50 values (i.e. concentration of unlabelled peptide or antagonist required to compete for 50% of specific binding to the radioligand) were determined using the GraphPad Prism software (GraphPad Software Inc., San Diego Calif.) with a fit to a sigmoidal dose response curve. Apparent K values were as K=IC50/(1+C/KD), where C is concentration of the radioligand.
row,Structure (SMILES),IC50
1,"CCCCC(C(=O)N(CC)CC)N1CCN(c2ccc(-c3nc(C)no3)cc2F)CC1 (stereo not shown) [Compound 199, 2-{4-[2-Fluoro-4-(3-methyl-[1,2,4]oxadiazol-5-yl)-phenyl]-piperazin-1-yl}-hexanoic acid diethylamide]",2.8 µM
2,"CCN(CC)C(=O)C(c1ccccc1)N1CCN(c2ccc(-c3noc(C(F)(F)F)n3)cc2F)CC1 (stereo not shown) [Compound 118, N,N-Diethyl-2-{4-[2-fluoro-4-(5-trifluoromethyl-[1,2,4]oxadiazol-3-yl)-phenyl]-piperazin-1-yl}-2-phenyl-acetamide]",0.18 µM
3,"CCNC(=O)C(c1ccccc1)N1CCN(c2ccc(-c3nc(C)no3)cc2C#N)CC1 (stereo not shown) [Compound 261, 2-{4-[2-Cyano-4-(3-methyl-[1,2,4]oxadiazol-5-yl)-phenyl]-piperazin-1-yl}-N-ethyl-2-phenyl-acetamide]",0.41 µM
4,"CCN(CC)C(=O)C(c1ccccc1)N1CCN(c2ccc(-c3nc(C(C)C)no3)cc2C(N)=O)CC1 (stereo not shown) [Compound 221, 2-[4-(Diethylcarbamoyl-phenyl-methyl)-piperazin-1-yl]-5-(3-isopropyl-[1,2,4]oxadiazol-5-yl)-benzamide]",2.1 µM
5,"CCNC(=O)C(c1ccccc1)N1CCN(c2ccc(-c3nc(C)no3)cc2F)CC1 (stereo not shown) [Compound 190, N-Ethyl-2-{4-[2-fluoro-4-(3-methyl-[1,2,4]oxadiazol-5-yl)-phenyl]-piperazin-1-yl}-2-phenyl-acetamide]",0.33 µM
6,"CCN(CC)C(=O)C(c1ccccc1)N1CCN(c2ccc(-c3nnc(C(C)C)[nH]3)cc2F)CC1 (stereo not shown) [Compound 212, N,N-Diethyl-2-{4-[2-fluoro-4-(5-isopropyl-2H-[1,2,4]triazol-3-yl)-phenyl]-piperazin-1-yl}-2-phenyl-acetamide]",0.83 µM
7,"CCN(CC)C(=O)C(c1ccccc1)N1CCN(c2ccc(C3=NN(C(C)C)C(=O)C3)cc2F)CC1 (stereo not shown) [Compound 191, N,N-Diethyl-2-{4-[2-fluoro-4-(1-isopropyl-5-oxo-4,5-dihydro-1H-pyrazol-3-yl)-phenyl]-piperazin-1-yl}-2-phenyl-acetamide]",0.34 µM
8,"CCN(CC)C(=O)C(c1ccccc1)N1CCN(c2ccc(-c3noc(C4CC4)n3)cc2F)CC1 (stereo not shown) [Compound 88, 2-{4-[4-(5-Cyclopropyl-[1,2,4]oxadiazol-3-yl)-2-fluoro-phenyl}-piperazin-1-yl]-N,N-diethyl-2-phenyl-acetamide]",0.27 µM
9,"CCN(CC)C(=O)C(c1ccccc1)N1CCN(c2ccc(-c3nc(C(C)C)no3)cc2CO)CC1 (stereo not shown) [Compound 257, N,N-Diethyl-2-{4-[2-hydroxymethyl-4-(3-isopropyl-[1,2,4]oxadiazol-5-yl)-phenyl]-piperazin-1-yl}-2-phenyl-acetamide]",0.34 µM
10,"CCN(CC)C(=O)C(c1ccccc1)N1CCN(c2ccc(-c3ccc(F)cc3)cc2F)CC1 (stereo not shown) [Compound 207, 2-[4-(3,4′-Difluoro-biphenyl-4-yl)-piperazin-1-yl]-N,N-diethyl-2-phenyl-acetamide]",1.1 µM
11,"COC(=O)C(c1ccccc1)N1CCN(c2ccc(-c3nc(C)no3)cc2F)CC1 (stereo not shown) [Compound 183, {4-[2-Fluoro-4-(3-methyl-[1,2,4]oxadiazol-5-yl)-phenyl]-piperazin-1-yl}-phenyl-acetic acid methyl ester]",3.1 µM
12,"CCN(CC)C(=O)C(c1ccc(F)cc1)N1CCN(c2ccc(-c3nc(C)no3)cc2C#N)CC1 (stereo not shown) [Compound 262, 2-{4-[2-Cyano-4-(3-methyl-[1,2,4]oxadiazol-5-yl)-phenyl]-piperazin-1-yl}-N,N-diethyl-2-(4-fluoro-phenyl)-acetamide]",0.098 µM
13,"CCN(CC)C(=O)C(c1ccccc1)N1CCN(c2ccc(-c3noc(C(=O)O)n3)cc2F)CC1 (stereo not shown) [Compound 151, 3-{4-[4-(Diethylcarbamoyl-phenyl-methyl)-piperazin-1-yl]-3-fluorophenyl}-[1,2,4]oxadiazole-5-carboxylic acid]",> 10 µM
14,"CCCc1nc(-c2ccc(N3CCN(C(C(=O)N(CC)CC)c4ccccc4)CC3)c(F)c2)no1 (stereo not shown) [Compound 68, N,N-Diethyl-2-{4-[2-fluoro-4-(5-propyl-[1,2,4]oxadiazol-3-yl)-phenyl]-piperazin-1-yl}-2-phenyl-acetamide]",0.52 µM

# The remaining compounds from weak to strong by IC50, led by results:
row,IC50,Structure (SMILES)
1,2.4 µM,"CCN(CC)C(=O)C(c1ccccc1)N1CCN(c2ccc(-c3nc(C(C)C)no3)cc2CN(C)C)CC1 (stereo not shown) [Compound 259, 2-{4-[2-Dimethylaminomethyl-4-(3-isopropyl-[1,2,4]oxadiazol-5-yl)-phenyl]-piperazin-1-yl}-N,N-diethyl-2-phenyl-acetamide]"
2,1.9 µM,"CCN(CC)C(=O)C(c1ccccc1)N1CCN(c2ccc(-c3nc(C(=O)OC)co3)cc2F)CC1 (stereo not shown) [Compound 129, 2-{4-[4-(Diethylcarbamoyl-phenyl-methyl)-piperazin-1-yl]-3-fluorophenyl}-oxazole-4-carboxylic acid methyl ester]"
3,1.5 µM,"CCN(CC)C(=O)C(c1ccccc1)N1CCN(c2ccc(-c3ncon3)cc2F)CC1 (stereo not shown) [Compound 158, N,N-Diethyl-2-[4-(2-fluoro-4-[1,2,4]oxadiazol-3-yl-phenyl)-piperazin-1-yl]-2-phenyl-acetamide]"
4,1 µM,"CCN(CC)C(=O)C(c1ccccc1)N1CCN(c2ccc(C3=N[C@H](C(=O)OC)CO3)cc2F)CC1 (stereo partly shown) [Compound 124, 2-{4-[4-(Diethylcarbamoyl-phenyl-methyl)-piperazin-1-yl]-3-fluorophenyl}-4,5-dihydro-oxazole-4-carboxylic acid methyl ester]"
5,1 µM,"CCOC(=O)C(C)(c1ccccc1)N1CCN(c2ccc(-c3nc(C)no3)cc2F)CC1 (stereo not shown) [Compound 226, 2-{4-[2-Fluoro-4-(3-methyl-[1,2,4]oxadiazol-5-yl)-phenyl]-piperazin-1-yl}-2-phenyl-propionic acid ethyl ester]"
6,0.85 µM,"CCN(CC)C(=O)C(c1ccccc1)N1CCN(c2ccc(-c3noc(C4CCC4)n3)cc2F)CC1 (stereo not shown) [Compound 89, 2-{4-[4-(5-Cyclobutyl-[1,2,4]oxadiazol-3-yl)-2-fluoro-phenyl]-piperazin-1-yl}-N,N-diethyl-2-phenyl-acetamide]"
7,0.74 µM,"CCN(CC)C(=O)C(c1ccccc1)N1CCN(c2ccc(-c3ccccn3)cc2F)CC1 (stereo not shown) [Compound 201, N,N-Diethyl-2-[4-(2-fluoro-4-pyridin-2-yl-phenyl)-piperazin-1-yl]-2-phenyl-acetamide]"
8,0.66 µM,"Cc1noc(-c2ccc(N3CCN(C(C(=O)OC(C)(C)C)c4ccccc4)CC3)c(F)c2)n1 (stereo not shown) [Compound 219, {4-[2-Fluoro-4-(3-methyl-[1,2,4]oxadiazol-5-yl)-phenyl]-piperazin-1-yl}-phenyl-acetic acid tert-butyl ester]"
9,0.53 µM,"CCc1noc(-c2ccc(N3CCN(C(C(=O)N(C)C)c4ccccc4)CC3)c(F)c2)n1 (stereo not shown) [Compound 181, 2-{4-[4-(3-Ethyl-[1,2,4]oxadiazol-5-yl)-2-fluoro-phenyl]-piperazin-1-yl}-N,N-dimethyl-2-phenyl-acetamide]"
10,0.51 µM,"CCN(CC)C(=O)C(c1ccccc1)N1CCN(c2ccc(-c3noc(SC)n3)cc2F)CC1 (stereo not shown) [Compound 177, N,N-Diethyl-2-{4-[2-fluoro-4-(5-methylsulfanyl-[1,2,4]oxadiazol-3-yl)-phenyl]-piperazin-1-yl}-2-phenyl-acetamide]"
11,0.48 µM,"Cc1noc(-c2ccc(N3CCN(C(C(=O)N4CCC(F)(F)CC4)c4ccccc4)CC3)c(F)c2)n1 (stereo not shown) [Compound 189, 1-(4,4-Difluoro-piperidin-1-yl)-2-{4-[2-fluoro-4-(3-methyl-[1,2,4]oxadiazol-5-yl)-phenyl]-piperazin-1-yl}-2-phenyl-ethanone]"
12,0.3 µM,"CCc1nnc(-c2ccc(N3CCN(C(C(=O)N(CC)CC)c4ccccc4)CC3)c(F)c2)o1 (stereo not shown) [Compound 152, N,N-Diethyl-2-{4-[4-(5-ethyl-[1,3,4]oxadiazol-2-yl)-2-fluoro-phenyl]-piperazin-1-yl}-2-phenyl-acetamide]"
13,0.24 µM,"COC(=O)C(c1ccccc1)N1CCN(c2ccc(-c3nc(C(C)C)no3)cc2F)CC1 (stereo not shown) [Compound 213, {4-[2-Fluoro-4-(3-isopropyl-[1,2,4]oxadiazol-5-yl)-phenyl]-piperazin-1-yl}-phenyl-acetic acid methyl ester]"
14,0.083 µM,"CCN(CC)C(=O)C(c1cccc(F)c1)N1CCN(c2ccc(-c3nc(C)no3)cc2F)CC1 (stereo not shown) [Compound 211, N,N-Diethyl-2-{4-[2-fluoro-4-(3-methyl-[1,2,4]oxadiazol-5-yl)-phenyl]-piperazin-1-yl}-2-(3-fluoro-phenyl)-acetamide]"
